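GI50: concentration for 50% inhibition of growth. The concentration for full growth arrest is given as TGI.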
Tests used:
Test in all cases: NCI tumour cell line growth inhibition, 384-well format
[1] = test system: SK-MEL-2 melanoma
[2] = test system: PC-3 prostate
[3] = test system: KM12 colon
[4] = test system: NCI-H226 lung
[5] = test system: CAKI-1 renal
[6] = test system: DU-145 prostate
[7] = test system: SF-268 CNS
[8] = test system: A498 renal
[9] = test system: NCI-H322M lung
[10] = test system: CCRF-CEM leukemia
[11] = test system: MOLT-4 leukemia
[12] = test system: HT29 colon
[13] = test system: SF-295 CNS
[14] = test system: HCT-15 colon
[15] = test system: A549 NSCLC
[16] = test system: SR leukemia
[17] = test system: ACHN renal
[18] = test system: SK-OV-3 ovarian
[19] = test system: MDA-MB-231 breast
[20] = test system: UO-31 renal
[21] = test system: NCI-H460 NSCLC
[22] = test system: NCI-H522 lung
[23] = test system: K-562 leukemia
[24] = test system: SK-MEL-28 melanoma
[25] = test system: TK-10 renal
[26] = test system: LOX IMVI melanoma
[27] = test system: U251 glioblastoma
[28] = test system: EKVX NSCLC
[29] = test system: HL-60(TB) leukemia
[30] = test system: M14 melanoma
[31] = test system: OVCAR-4 ovarian
[32] = test system: RXF 393 renal
[33] = test system: 786-0 renal
[34] = test system: NCI/ADR-RES ovarian
[35] = test system: HOP-92 NSCLC
[36] = test system: HCT-116 colon
[37] = test system: MDA-MB-435 melanoma
[38] = test system: MCF7 breast
[39] = test system: UACC-257 melanoma
[40] = test system: OVCAR-3 ovarian
[41] = test system: SN12C renal
[42] = test system: SK-MEL-5 melanoma
[43] = test system: UACC-62 melanoma
[44] = test system: BT-549 breast
[45] = test system: SNB-75 CNS
[46] = test system: HCC-2998 colon
[47] = test system: COLO 205 colon

`C[C@]12CCCN1CC1=NNC(=O)c3cc(F)cc4[nH]c2c1c34` was tested, and the GI50 [1] was 20.4 µM, the TGI [1] was 41.6 µM and the GI50 [2] was 20 µM. For the same compound, the TGI [2] was greater than 80.7 µM, the GI50 [3] was 13.2 µM and the TGI [3] was 42.3 µM. For the same compound, the GI50 [4] was 14.8 µM, the TGI [4] was 50.2 µM and the GI50 [5] was 18.1 µM. For the same compound, the TGI [5] was 69.4 µM, the GI50 [6] was 27.9 µM and the TGI [6] was 80 µM. The GI50 [7] was 14.5 µM, the TGI [7] was 31.6 µM and the GI50 [8] was 18.4 µM. The TGI [8] was 49 µM, the GI50 [9] was 23.4 µM and the TGI [9] was 52.5 µM. For the same compound, the GI50 [10] was 14.4 µM, the TGI [10] was 27.8 µM and the GI50 [11] was 2.48 µM. For the same compound, the TGI [11] was 10.5 µM, the GI50 [12] was 22.8 µM and the TGI [12] was 74.7 µM. For the same compound, the GI50 [13] was 10.7 µM, the TGI [13] was 51.9 µM and the GI50 [14] was 32 µM. For the same compound, the TGI [14] was greater than 95.3 µM, the GI50 [15] was 29.1 µM and the TGI [15] was greater than 100 µM. The GI50 [16] was 1.27 µM, the TGI [16] was 2.58 µM and the GI50 [17] was 24 µM. It also gave a TGI [17] greater than 76.2 µM, a GI50 [18] of 35.5 µM and a TGI [18] greater than 100 µM. For the same compound, the GI50 [19] was 13.6 µM, the TGI [19] was 60.1 µM and the GI50 [20] was 27.5 µM. The TGI [20] was 96.1 µM, the GI50 [21] was 4.64 µM and the TGI [21] was 20.6 µM. It also gave a GI50 [22] of 16.8 µM, a TGI [22] of 44.6 µM and a GI50 [23] of 38.6 µM. The TGI [23] was greater than 100 µM, the GI50 [24] was 26.1 µM and the TGI [24] was 81.3 µM. For the same compound, the GI50 [25] was 24.1 µM, the TGI [25] was 73.9 µM and the GI50 [26] was 16.3 µM. It also gave a TGI [26] of 60.4 µM, a GI50 [27] of 13.6 µM and a TGI [27] greater than 79.2 µM. It also gave a GI50 [28] of 20.2 µM, a TGI [28] of 51.6 µM and a GI50 [29] of 15.6 µM. The TGI [29] was 29.1 µM, the GI50 [30] was 18.3 µM and the TGI [30] was 43.4 µM. The GI50 [31] was 26.5 µM, the TGI [31] was 79.4 µM and the GI50 [32] was 12.8 µM. The TGI [32] was 30.9 µM, the GI50 [33] was 29 µM and the TGI [33] was greater than 80.9 µM. For the same compound, the GI50 [34] was 20.9 µM, the TGI [34] was 75 µM and the GI50 [35] was 18.4 µM. For the same compound, the TGI [35] was greater than 60.9 µM, the GI50 [36] was 9 µM and the TGI [36] was 43.3 µM. For the same compound, the GI50 [37] was 42.4 µM, the TGI [37] was greater than 100 µM and the GI50 [38] was 19.4 µM. The TGI [38] was 71.1 µM, the GI50 [39] was 37.2 µM and the TGI [39] was greater than 92.2 µM. For the same compound, the GI50 [40] was 14 µM, the TGI [40] was 39.9 µM and the GI50 [41] was 13.1 µM. For the same compound, the TGI [41] was 35 µM, the GI50 [42] was 19.6 µM and the TGI [42] was 36.7 µM. For the same compound, the GI50 [43] was 11.7 µM, the TGI [43] was 28.1 µM and the GI50 [44] was 16.4 µM. For the same compound, the TGI [44] was 42.2 µM, the GI50 [45] was 23.3 µM and the TGI [45] was greater than 67.2 µM. For the same compound, the GI50 [46] was 9.2 µM, the TGI [46] was 27.5 µM and the GI50 [47] was 17.8 µM. It also gave a TGI [47] of 45.1 µM.

Reference: PubChem BioAssay (NCI)
